# From PubChem BioAssay AID2060484 (Molecular Pharmacology Branch, DTP, NCI, 2025)
# System: SUM149PT spheroids with HUVEC/MSC, viability
# Test: Anticancer human tumor SUM149PT cell line growth inhibition [GQUAD];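 further: spheroids exposed to drugs for seven days before readout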;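 on viability, T/C: percent viability relative to DMSO vehicle control taken as 100%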
# Details: for IC50: curve of first compound; for viability, T/C: stronger effect = lower value
# Excerpt: DNA G-quadruplex Stabilizer Agents in Combinations in Complex Spheroids
# A high-throughput screen of multi-cell type tumor spheroids was designed to identify active combinations of DNA G-quadruplex stabilizer agents and targeted small molecules. Complex spheroids include a stromal component modeled by human endothelial cells (HUVEC) and fibroblasts modeled by human mesenchymal stem cells (MSCs). The concentration ranges selected for each drug and investigational agent were based upon clinically achievable concentrations if the clinical Cmax of the agent was known.
# Compounds. The drugs and investigational agents: pidnarulex (CX-5461; NSC782164), APTO-253 (NSC789042), BRACO-19 (NSC847499), peposertib (NSC802822), ceralasertib (NSC780249), elimusertib (NSC800525), camonsertib (NSC841442), AZD-1390 (NSC803789), olaparib (NSC753686), talazoparib (NSC767125), ART-558 (NSC835418), sotorasib (NSC818433), MRTX-1133 (NSC836407), SN-38 (NSC673596), topotecan (NSC609699), etoposide (NSC141540), doxorubicin (NSC123127), gemcitabine (NSC613327), 5-fluorouracil (NSC19893), paclitaxel (NSC125973), vemurafenib (NSC761431), panobinostat (NSC761190), R-306465 (JNJ-16241199; NSC773264), adavosertib (NSC754352), TP-3654 (NSC805149), carboplatin (NSC241240), KSQ-4279 (NSC840948), and staurosporine (NSC755774) were obtained from the National Cancer Institute (NCI) Developmental Therapeutics Program Chemical Repository (34). The FDA-approved anticancer drug set is available from the NCI Developmental Therapeutics Program. […] The stock solutions were prepared in dimethyl sulfoxide (DMSO, Sigma-Aldrich, St. Louis, MO, cat. D2650) at 800-fold the tested concentration and stored at -70 degrees C prior to their use. All drugs and investigational agents were tested over a range starting from a high concentration at or near the clinical Cmax and decreasing in half-log increments. If the clinical Cmax for an agent had not been determined, the highest concentration tested was 10 microM.
# 2.3 Cell Culture. All cells were maintained in an incubator at 37 degrees C and 5% CO2 with 95% humidity. The PDC lines were cultured according to standard operating procedures established by the NCI PDMR. All PDCs were thawed and cultured in Matrigel-coated flasks prepared with a working solution of 1X Ham's F-12 nutrient mix, without supplementation (Invitrogen, cat. 11765054), 100 U/mL penicillin-streptomycin (Invitrogen, cat. 15140122), and 2.5% Matrigel (Corning Inc., cat. 354248) for the first three passages. The 857933-349-R-J2-PDC line was cultured in 6C/Colon 1B media, which includes advanced DMEM/F-12 (Thermo Fisher Scientific, cat. 12634028), 10 mM HEPES (Thermo Fisher Scientific, cat. 15630080), 1X GlutaMAX supplement (Thermo Fisher Scientific, cat. 35050061), 0.1 mg/mL primocin (InvivoGen, cat. ant-pm-2), 10% defined fetal bovine serum, heat inactivated (HyClone Laboratories Inc., cat. SH30070.03HI), 50% L-WRN conditioned media (ATCC, cat. CRL-3276), 1.25 mM N-Acetyl-L-cysteine (Sigma-Aldrich, cat. A9165), 10 mM nicotinamide (Sigma-Aldrich, cat. N0636), 1X B-27 supplement (Thermo Fisher Scientific, cat. 17504044), 1X N-2 supplement (Thermo Fisher Scientific, cat. 17502048), 10 microM Y-27632 dihydrochloride (Tocris Bioscience, cat. 1254), and 50 ng/mL human EGF recombinant protein (Thermo Fisher Scientific, cat. PHG0311). The 485176-168-R4-J1-PDC line was cultured in Panc media, which includes all 6C/Colon 1B media components plus 100 ng/mL human FGF-10 (Thermo Fisher Scientific, cat. 100-26), 500 nM SB-431542 (Selleckchem, cat. S1067), and gastrin (Tocris, cat. 3006).
# […]
# [1] = second compound 0.0316 µM, first compound 0.0316 µM
# [2] = second compound 0.0316 µM, first compound 0.316 µM
# [3] = second compound 0.1 µM, first compound 0.0316 µM
# [4] = second compound 0.1 µM, first compound 0.316 µM
# [5] = second compound 0.316 µM, first compound 0.0316 µM
# [6] = second compound 0.316 µM, first compound 0.316 µM
# [7] = second compound 1 µM, first compound 0.0316 µM
# [8] = second compound 1 µM, first compound 0.316 µM
# [9] = second compound 3.16 µM, first compound 0.0316 µM
# [10] = second compound 3.16 µM, first compound 0.316 µM
# [11] = second compound 10 µM, first compound 0.0316 µM
# [12] = second compound 10 µM, first compound 0.316 µM
structure (smiles),measurement,setting,value
O=C(NO)c1cnc(N2CCN(S(=O)(=O)c3ccc4ccccc4c3)CC2)nc1 + Cc1cnc(CNC(=O)c2c(=O)c3ccc(N4CCCN(C)CC4)nc3n3c2sc2ccccc23)cn1,IC50,second compound 0.0316 µM,124 nM
same,IC50,second compound 0.1 µM,184 nM
same,IC50,second compound 0.316 µM,121 nM
same,IC50,second compound 1 µM,< 31.6 nM
same,IC50,second compound 3.16 µM,< 31.6 nM
same,IC50,second compound 10 µM,< 31.6 nM
same,"viability, T/C",[1],90.1%
same,"viability, T/C","second compound 0.0316 µM, first compound 0.1 µM",47.7%
same,"viability, T/C",[2],42.7%
same,"viability, T/C","second compound 0.0316 µM, first compound 1 µM",0.16%
same,"viability, T/C","second compound 0.0316 µM, first compound 3.16 µM",0.95%
same,"viability, T/C","second compound 0.0316 µM, first compound 10 µM",3.31%
same,"viability, T/C",[3],65.5%
same,"viability, T/C","second compound 0.1 µM, first compound 0.1 µM",52.9%
same,"viability, T/C",[4],41.9%
same,"viability, T/C","second compound 0.1 µM, first compound 1 µM",0.15%
same,"viability, T/C","second compound 0.1 µM, first compound 3.16 µM",0.63%
same,"viability, T/C","second compound 0.1 µM, first compound 10 µM",2.26%
same,"viability, T/C",[5],51.9%
same,"viability, T/C","second compound 0.316 µM, first compound 0.1 µM",54%
same,"viability, T/C",[6],35.9%
same,"viability, T/C","second compound 0.316 µM, first compound 1 µM",2.48%
same,"viability, T/C","second compound 0.316 µM, first compound 3.16 µM",0.95%
same,"viability, T/C","second compound 0.316 µM, first compound 10 µM",0.63%
same,"viability, T/C",[7],48.3%
same,"viability, T/C","second compound 1 µM, first compound 0.1 µM",45.7%
same,"viability, T/C",[8],34%
same,"viability, T/C","second compound 1 µM, first compound 1 µM",1.85%
same,"viability, T/C","second compound 1 µM, first compound 3.16 µM",1.22%
same,"viability, T/C","second compound 1 µM, first compound 10 µM",0.11%
same,"viability, T/C",[9],39%
same,"viability, T/C","second compound 3.16 µM, first compound 0.1 µM",37.8%
same,"viability, T/C",[10],27.7%
same,"viability, T/C","second compound 3.16 µM, first compound 1 µM",0.11%
same,"viability, T/C","second compound 3.16 µM, first compound 3.16 µM",0.1%
same,"viability, T/C","second compound 3.16 µM, first compound 10 µM",0.32%
same,"viability, T/C",[11],0.2%
same,"viability, T/C","second compound 10 µM, first compound 0.1 µM",2.04%
same,"viability, T/C",[12],1.16%
same,"viability, T/C","second compound 10 µM, first compound 1 µM",0.97%
same,"viability, T/C","second compound 10 µM, first compound 3.16 µM",0.39%
same,"viability, T/C","second compound 10 µM, first compound 10 µM",2.62%
Cc1[nH]c2ccccc2c1CCNCc1ccc(/C=C/C(=O)NO)cc1 + Cc1[nH]c2ccc(F)cc2c1-c1nc2c3cccnc3c3ncccc3c2[nH]1,IC50,second compound 0.0316 µM,260 nM
same,IC50,second compound 0.1 µM,> 316 nM
same,IC50,second compound 0.316 µM,299 nM
same,IC50,second compound 1 µM,304 nM
same,IC50,second compound 3.16 µM,308 nM
same,IC50,second compound 10 µM,250 nM
same,"viability, T/C","second compound 0.0316 µM, first compound 0.000999 µM",98%
same,"viability, T/C","second compound 0.0316 µM, first compound 0.00316 µM",99.6%
same,"viability, T/C","second compound 0.0316 µM, first compound 0.00999 µM",103%
same,"viability, T/C",[1],102%
same,"viability, T/C","second compound 0.0316 µM, first compound 0.0999 µM",98%
same,"viability, T/C",[2],40.3%
same,"viability, T/C","second compound 0.1 µM, first compound 0.000999 µM",101%
same,"viability, T/C","second compound 0.1 µM, first compound 0.00316 µM",97.5%
same,"viability, T/C","second compound 0.1 µM, first compound 0.00999 µM",97.6%
same,"viability, T/C",[3],97.2%
same,"viability, T/C","second compound 0.1 µM, first compound 0.0999 µM",90.6%
same,"viability, T/C",[4],50.3%
same,"viability, T/C","second compound 0.316 µM, first compound 0.000999 µM",108%
same,"viability, T/C","second compound 0.316 µM, first compound 0.00316 µM",107%
same,"viability, T/C","second compound 0.316 µM, first compound 0.00999 µM",98%
same,"viability, T/C",[5],106%
same,"viability, T/C","second compound 0.316 µM, first compound 0.0999 µM",87.6%
same,"viability, T/C",[6],47.8%
same,"viability, T/C","second compound 1 µM, first compound 0.000999 µM",106%
same,"viability, T/C","second compound 1 µM, first compound 0.00316 µM",96.6%
same,"viability, T/C","second compound 1 µM, first compound 0.00999 µM",93.6%
same,"viability, T/C",[7],105%
same,"viability, T/C","second compound 1 µM, first compound 0.0999 µM",97.4%
same,"viability, T/C",[8],48.3%
same,"viability, T/C","second compound 3.16 µM, first compound 0.000999 µM",96.8%
same,"viability, T/C","second compound 3.16 µM, first compound 0.00316 µM",89.4%
same,"viability, T/C","second compound 3.16 µM, first compound 0.00999 µM",81.4%
same,"viability, T/C",[9],93.3%
same,"viability, T/C","second compound 3.16 µM, first compound 0.0999 µM",89.4%
same,"viability, T/C",[10],49.1%
same,"viability, T/C","second compound 10 µM, first compound 0.000999 µM",99.1%
same,"viability, T/C","second compound 10 µM, first compound 0.00316 µM",88%
same,"viability, T/C","second compound 10 µM, first compound 0.00999 µM",89.4%
same,"viability, T/C",[11],88.5%
same,"viability, T/C","second compound 10 µM, first compound 0.0999 µM",82.2%
same,"viability, T/C",[12],41.4%
